Drawing on ChEMBL document CHEMBL1153484, “Design, synthesis and evaluation of N-[(3S)-pyrrolidin-3-yl]benzamides as selective noradrenaline reuptake inhibitors: CNS penetration in a more polar template” (Bioorg Med Chem Lett, 2009), this text covers Ki, microsomal CLint and IC50 for 38 compounds.

In data set [1] the target is Sodium-dependent noradrenaline transporter (Homo sapiens, UniProt P23975). Put plainly: Displacement of [3H]nisoxetine from human recombinant NET expressed in HEK293 cells by scintillation proximity assay. Type of data set: cell-based. In general terms: Loss of bound radioactivity is the signal in a displacement assay; it reports binding, not function.
Chain of Sodium-dependent noradrenaline transporter (P23975 whole entry): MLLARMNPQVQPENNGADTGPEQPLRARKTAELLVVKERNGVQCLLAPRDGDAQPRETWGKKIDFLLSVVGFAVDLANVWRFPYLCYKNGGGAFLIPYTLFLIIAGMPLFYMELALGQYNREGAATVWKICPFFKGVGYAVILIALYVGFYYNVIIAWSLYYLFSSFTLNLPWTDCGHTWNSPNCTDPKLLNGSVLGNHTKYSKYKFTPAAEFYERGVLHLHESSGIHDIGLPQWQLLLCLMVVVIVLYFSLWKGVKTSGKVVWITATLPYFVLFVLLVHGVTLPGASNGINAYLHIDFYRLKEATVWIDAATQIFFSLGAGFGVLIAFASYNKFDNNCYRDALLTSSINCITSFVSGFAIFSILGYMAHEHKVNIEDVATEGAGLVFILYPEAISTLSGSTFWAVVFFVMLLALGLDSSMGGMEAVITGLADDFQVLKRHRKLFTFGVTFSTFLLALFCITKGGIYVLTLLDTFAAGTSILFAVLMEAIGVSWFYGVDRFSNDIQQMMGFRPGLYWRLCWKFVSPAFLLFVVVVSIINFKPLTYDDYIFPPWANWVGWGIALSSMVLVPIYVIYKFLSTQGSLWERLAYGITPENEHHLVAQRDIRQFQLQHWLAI
In data set [2] the target is Sodium-dependent serotonin transporter (Homo sapiens, UniProt P31645). Kind of data set: Displacement of [3H]citalopram from human recombinant SERT expressed in HEK293 cells by scintillation proximity assay. Type of data set: cell-based.
Chain of Sodium-dependent serotonin transporter (P31645 whole entry): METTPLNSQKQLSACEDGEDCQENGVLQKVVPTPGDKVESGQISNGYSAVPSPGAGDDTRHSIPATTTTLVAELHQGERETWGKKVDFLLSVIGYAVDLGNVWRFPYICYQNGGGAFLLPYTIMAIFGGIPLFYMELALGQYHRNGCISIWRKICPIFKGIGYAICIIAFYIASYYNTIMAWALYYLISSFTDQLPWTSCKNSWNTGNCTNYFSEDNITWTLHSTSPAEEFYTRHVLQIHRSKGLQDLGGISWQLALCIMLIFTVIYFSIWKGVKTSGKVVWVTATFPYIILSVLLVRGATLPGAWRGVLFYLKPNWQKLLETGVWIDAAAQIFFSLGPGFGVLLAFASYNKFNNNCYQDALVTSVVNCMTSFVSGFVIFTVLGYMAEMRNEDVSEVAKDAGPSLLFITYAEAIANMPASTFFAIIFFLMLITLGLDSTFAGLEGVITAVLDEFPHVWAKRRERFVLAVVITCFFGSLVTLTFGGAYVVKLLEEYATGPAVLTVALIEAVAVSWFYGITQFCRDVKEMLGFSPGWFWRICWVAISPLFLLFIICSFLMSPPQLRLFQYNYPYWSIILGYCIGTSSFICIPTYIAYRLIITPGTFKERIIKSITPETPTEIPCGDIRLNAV
The target of data set [3] is Sodium-dependent dopamine transporter (Homo sapiens, UniProt Q01959). Put plainly: Displacement of radioligand from human recombinant DAT expressed in HEK293 cells by scintillation proximity assay. Type of data set: cell-based.
Chain of Sodium-dependent dopamine transporter (Q01959 whole entry): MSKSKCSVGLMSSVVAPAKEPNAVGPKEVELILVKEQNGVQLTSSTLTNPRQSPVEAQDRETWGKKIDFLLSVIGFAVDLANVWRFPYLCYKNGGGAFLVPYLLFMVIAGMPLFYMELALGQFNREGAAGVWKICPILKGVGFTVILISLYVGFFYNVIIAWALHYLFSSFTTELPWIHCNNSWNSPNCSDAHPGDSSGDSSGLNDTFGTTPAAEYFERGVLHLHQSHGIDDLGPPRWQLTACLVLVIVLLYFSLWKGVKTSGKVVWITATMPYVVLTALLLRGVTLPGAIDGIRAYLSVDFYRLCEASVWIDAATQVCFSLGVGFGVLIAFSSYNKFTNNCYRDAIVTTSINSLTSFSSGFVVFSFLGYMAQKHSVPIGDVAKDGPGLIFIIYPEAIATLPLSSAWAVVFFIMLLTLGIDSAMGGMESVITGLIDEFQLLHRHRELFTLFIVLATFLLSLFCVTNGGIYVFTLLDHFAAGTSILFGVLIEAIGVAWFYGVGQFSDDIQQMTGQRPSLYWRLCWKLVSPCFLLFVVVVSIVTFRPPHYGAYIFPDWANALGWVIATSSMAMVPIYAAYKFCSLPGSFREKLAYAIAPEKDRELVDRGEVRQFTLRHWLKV
Data set [4] in a line: Intrinsic clearance in human liver microsomes. Type of data set: ADME, Microsome.
Data set [5] has as its target Voltage-gated inwardly rectifying potassium channel KCNH2 (Homo sapiens, UniProt Q12809). Kind of data set: Displacement of [3H]dofetilide from human ERG.
The target in the next data set is Cytochrome P450 2D6 (Homo sapiens, UniProt P10635). Put plainly: Inhibition of CYP2D6. Type of data set: ADME.
Chain of Cytochrome P450 2D6 (P10635 whole entry): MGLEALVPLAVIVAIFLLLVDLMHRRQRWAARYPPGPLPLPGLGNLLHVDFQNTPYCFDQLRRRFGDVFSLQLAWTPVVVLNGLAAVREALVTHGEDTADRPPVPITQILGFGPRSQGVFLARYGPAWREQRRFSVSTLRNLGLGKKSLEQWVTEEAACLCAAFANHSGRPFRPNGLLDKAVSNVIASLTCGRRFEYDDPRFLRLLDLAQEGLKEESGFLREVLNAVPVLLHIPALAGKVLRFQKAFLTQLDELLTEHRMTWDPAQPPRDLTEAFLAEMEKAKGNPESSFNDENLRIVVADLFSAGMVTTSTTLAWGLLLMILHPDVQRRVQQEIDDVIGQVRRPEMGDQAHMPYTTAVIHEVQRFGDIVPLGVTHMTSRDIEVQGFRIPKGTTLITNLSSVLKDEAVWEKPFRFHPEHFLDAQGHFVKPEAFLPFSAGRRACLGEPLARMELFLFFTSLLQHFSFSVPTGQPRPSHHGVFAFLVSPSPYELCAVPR

Chain of Voltage-gated inwardly rectifying potassium channel KCNH2 (Q12809 whole entry): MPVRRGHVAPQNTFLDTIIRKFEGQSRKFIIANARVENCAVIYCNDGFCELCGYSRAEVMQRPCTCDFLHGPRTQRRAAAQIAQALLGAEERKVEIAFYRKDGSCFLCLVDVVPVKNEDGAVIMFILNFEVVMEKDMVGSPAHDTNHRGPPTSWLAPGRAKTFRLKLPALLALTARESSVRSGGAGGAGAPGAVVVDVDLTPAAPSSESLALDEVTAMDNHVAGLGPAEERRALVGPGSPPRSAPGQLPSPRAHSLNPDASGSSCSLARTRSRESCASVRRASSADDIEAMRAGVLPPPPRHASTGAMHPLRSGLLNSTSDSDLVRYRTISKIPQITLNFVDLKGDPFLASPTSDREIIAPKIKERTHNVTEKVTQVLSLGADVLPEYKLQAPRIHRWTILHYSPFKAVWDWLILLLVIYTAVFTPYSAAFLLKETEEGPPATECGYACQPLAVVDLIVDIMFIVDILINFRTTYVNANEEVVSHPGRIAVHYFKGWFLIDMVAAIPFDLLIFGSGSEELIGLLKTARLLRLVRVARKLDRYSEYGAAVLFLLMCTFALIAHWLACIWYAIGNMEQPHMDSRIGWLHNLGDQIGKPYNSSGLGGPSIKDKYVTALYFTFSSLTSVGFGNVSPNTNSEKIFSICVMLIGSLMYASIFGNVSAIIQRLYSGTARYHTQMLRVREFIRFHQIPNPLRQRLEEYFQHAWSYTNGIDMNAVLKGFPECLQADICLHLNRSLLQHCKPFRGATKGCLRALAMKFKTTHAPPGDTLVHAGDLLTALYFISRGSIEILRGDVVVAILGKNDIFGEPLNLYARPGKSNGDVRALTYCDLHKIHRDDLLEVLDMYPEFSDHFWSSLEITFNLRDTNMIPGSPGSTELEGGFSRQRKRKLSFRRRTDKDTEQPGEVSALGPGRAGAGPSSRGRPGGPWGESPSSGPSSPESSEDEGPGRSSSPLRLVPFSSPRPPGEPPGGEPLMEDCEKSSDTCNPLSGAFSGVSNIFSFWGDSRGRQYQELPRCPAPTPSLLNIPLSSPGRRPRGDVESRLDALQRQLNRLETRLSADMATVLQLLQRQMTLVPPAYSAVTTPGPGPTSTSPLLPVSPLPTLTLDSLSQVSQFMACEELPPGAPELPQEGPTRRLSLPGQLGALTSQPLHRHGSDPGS

As for `CCc1ccccc1C(=O)N(CC1CCC1)[C@H]1CCNC1`, the Ki (as a rule, the dissociation constant of the complex between target and ligand, obtained from inhibition or displacement) in data set [1] is 29 nM; in data set [2], 237 nM; in data set [3], 2680 nM.
For `O=C(c1ccccc1Oc1ccccc1)N(C1CCC1)[C@H]1CCNC1`, the figures for the Ki in data set [1], in data set [2] and in data set [3] were 13 nM, 222 nM and above 10000 nM, respectively. Further, the microsomal CLint (usually a measure of how fast metabolising enzymes remove a compound, apart from limits set by blood flow) in data set [4] is below 7 µL/min/mg.
For the compound `CC(C)C(=O)N(Cc1ccccc1-c1ccccc1)[C@H]1CCNC1`, the concentration for half-maximal inhibition (IC50) – broadly, the concentration at which inhibition is half-maximal – in data set [5] was determined as 3020 nM.
`CC(C)c1ccccc1C(=O)N(CC1CCC1)[C@@H]1CCNC1`: the Ki is 825 nM in data set [1], 1990 nM in data set [2] and above 3160 nM in data set [3].
The compound `CSc1ccccc1C(=O)N(C1CCCC1)[C@H]1CCNC1` yielded an IC50 in data set [5] above 18700 nM. The Ki in data set [1] amounted to 9 nM; in data set [2], 36 nM; in data set [3], 4770 nM.
For `CCN(C(=O)c1ccccc1Oc1ccccc1)[C@H]1CCNC1`, the IC50 in data set [5] was 5030 nM; against Cytochrome P450 2D6 it was above 30000 nM. For the same compound, the Ki in data set [1] is 9 nM; in data set [2], 1610 nM; in data set [3], 3570 nM. In addition, in data set [4], the microsomal CLint is below 7 µL/min/mg.
As for `O=C(C1CCC1)N(Cc1ccccc1C(F)(F)F)[C@H]1CCNC1`, the figures for the inhibition constant Ki in data set [1], in data set [2] and in data set [3] were 148 nM, 187 nM and above 10000 nM, respectively. Also, the microsomal CLint in data set [4] is below 7 µL/min/mg.
In the same order, the values of `O=C(c1ccccc1C1CCCC1)N(CC1CCC1)[C@H]1CCNC1` are 18 nM, 802 nM, 3720 nM and 60 µL/min/mg.
In the case of `O=C(c1ccccc1Cl)N(CC1CCC1)[C@H]1CCNC1`, the Ki came to 19 nM in data set [1], 39 nM in data set [2] and 1360 nM in data set [3].
On to `O=C(c1ccccc1Oc1ccccc1)N(CC1CCC1)[C@H]1CCNC1`, for which the IC50 in data set [5] amounted to 760 nM; against Cytochrome P450 2D6, 65 nM. Besides, the Ki in data set [1] is 7 nM; in data set [2] it was 151 nM; in data set [3], above 10000 nM. In data set [4], this compound showed a microsomal CLint below 7 µL/min/mg.
Compound `CC(C)c1ccccc1C(=O)N(CC1CCCC1)[C@H]1CCNC1` gave an IC50 in data set [5] of 2350 nM. Further, the Ki in data set [1] was found to be 18 nM; in data set [2] it was 330 nM; in data set [3], 3470 nM.
`CC(C)CN(C(=O)c1ccccc1Oc1ccccc1)[C@H]1CCNC1`: the Ki in data set [1] was 8 nM; in data set [2] it was 160 nM; in data set [3] it was above 10000 nM. The compound also yielded a microsomal CLint in data set [4] below 7 µL/min/mg.
As for `CC(C)N(C(=O)c1ccccc1C(F)(F)F)[C@H]1CCNC1`, in data set [5], the IC50 was above 20000 nM. The Ki in data set [1] is 172 nM; in data set [2], 457 nM; in data set [3], above 10000 nM.
The compound `CCOc1ccccc1C(=O)N(CC1CCC1)[C@H]1CCNC1` gave an IC50 in data set [5] above 16800 nM. In addition, the Ki in data set [1] came out at 22 nM; in data set [2], 348 nM; in data set [3], 2650 nM. This compound also had a microsomal CLint in data set [4] below 7 µL/min/mg.
With `O=C(c1ccccc1Oc1ccccc1)N(c1ccccc1)[C@H]1CCNC1`, the Ki in data set [2] amounted to 68 nM; in data set [3], 4650 nM. The same compound yielded an intrinsic metabolic clearance (microsomal CLint) in data set [4] below 7 µL/min/mg.
Turning to `O=C(c1ccccc1C(F)(F)F)N(CC1CCC1)[C@@H]1CCNC1`, the Ki in data set [1] stood at 1120 nM; in data set [2], 1650 nM; in data set [3] it was 3960 nM.
Regarding `CSc1ccccc1C(=O)N(c1ccccc1)[C@H]1CCNC1`, the IC50 in data set [5] was above 20000 nM. For the same compound, the Ki in data set [1] worked out at 19 nM; in data set [2], 64 nM; in data set [3] it was 3440 nM.
Consider `CC(C)c1ccccc1C(=O)N(C1CCC1)[C@H]1CCNC1`, for which the figures for the Ki in data set [1], in data set [2] and in data set [3] were 43 nM, 776 nM and above 10000 nM, respectively.
For `CSc1ccccc1C(=O)N(C1CCC1)[C@H]1CCNC1`, the values for the IC50 (in data set [5]; at Cytochrome P450 2D6) were above 20000 nM and above 30000 nM, respectively. For the same compound, the Ki in data set [1] is 16 nM; in data set [2] it was 62 nM; in data set [3] it was above 10000 nM. For the same compound, the microsomal CLint in data set [4] was below 7 µL/min/mg.
As to `CSc1ccccc1C(=O)N(CC1CCC1)[C@H]1CCNC1`, the IC50 in data set [5] is above 20000 nM. In addition, the values for the Ki in data set [1], in data set [2] and in data set [3] were 8 nM, 179 nM and 3040 nM, respectively. Moreover, in data set [4], the microsomal CLint was below 7 µL/min/mg.
In the same order, the values of `O=C(c1ccccc1C(F)(F)F)N(C1CCC1)[C@H]1CCNC1` are above 10000 nM, 60 nM, 210 nM, above 10000 nM and below 7 µL/min/mg.
In the case of `CCSc1ccccc1C(=O)N(CC1CCC1)[C@H]1CCNC1`, the IC50 in data set [5] came to 7570 nM; against Cytochrome P450 2D6, 480 nM. The Ki came out at 6 nM in data set [1], 266 nM in data set [2] and 3670 nM in data set [3]. The intrinsic clearance (microsomal CLint) in data set [4] came to 8 µL/min/mg.
As for `O=C(c1ccccc1C(F)(F)F)N(c1ccccc1)[C@H]1CCNC1`, the IC50 in data set [5] was above 20000 nM; on Cytochrome P450 2D6 it was above 3000 nM. In addition, the Ki in data set [1] came to 28 nM; in data set [2] it was 113 nM; in data set [3], 3130 nM. This compound gave a microsomal CLint in data set [4] below 7 µL/min/mg.
On to `CC(C)c1ccccc1C(=O)N(CC1CC1)[C@H]1CCNC1`, for which the IC50 in data set [5] is above 17600 nM. In addition, the Ki in data set [1] was 31 nM; in data set [2], 2870 nM; in data set [3], above 10000 nM.
`CNCc1cnc(C)cc1Oc1ccccc1Oc1ccccc1` came in with an IC50 in data set [5] of 11200 nM. For the same compound, in data set [4], the microsomal CLint was below 7 µL/min/mg.
For `CSc1ccccc1C(=O)N(CC1CCC1)[C@@H]1CCNC1`, the Ki came to 572 nM in data set [1], 1080 nM in data set [2] and 3470 nM in data set [3].
Turning to `O=C(c1ccccc1Oc1ccccc1)N(CC1CCC1)[C@@H]1CCNC1`, the Ki in data set [1] worked out at 38 nM; in data set [2] it was 587 nM; in data set [3], 4100 nM. In data set [4], the microsomal CLint is below 8 µL/min/mg.
In turn, `O=C(c1ccccc1C(F)(F)F)N(CC1CCCC1)[C@H]1CCNC1` showed an IC50 in data set [5] above 13500 nM. In addition, the Ki turned out to be 24 nM in data set [1], 109 nM in data set [2] and 2750 nM in data set [3]. Further, in data set [4], the intrinsic clearance (microsomal CLint) was below 7 µL/min/mg.
Consider `CCCN(C(=O)c1ccccc1SC)[C@H]1CCNC1`, for which the IC50 in data set [5] was above 20000 nM. In addition, the Ki stood at 37 nM in data set [1], 1090 nM in data set [2] and 3110 nM in data set [3].
`Cc1ccccc1C(=O)N(CC1CCC1)[C@H]1CCNC1`: the IC50 in data set [5] was above 20000 nM. The values for the Ki in data set [1], in data set [2] and in data set [3] were 72 nM, 118 nM and 2340 nM, respectively.
`CCOC(=O)N(Cc1ccccc1-c1ccccc1)[C@H]1CCNC1` displayed a microsomal CLint in data set [4] below 7 µL/min/mg.
On to `CCCN(C(=O)c1ccccc1C(C)C)[C@H]1CCNC1`, for which the Ki in data set [1] is 92 nM; in data set [2], 5210 nM; in data set [3] it was above 10000 nM.
In the same order, the values of `CC(C)c1ccccc1C(=O)N(C1CCCC1)[C@H]1CCNC1` are 32 nM, 663 nM and above 10000 nM.
Regarding `CN(C(=O)c1ccccc1Oc1ccccc1)[C@H]1CCNC1`, in data set [5], the IC50 is 9210 nM. Also, the Ki in data set [1] is 61 nM; in data set [2], 661 nM; in data set [3], above 3160 nM.
As to `CC(C)c1ccccc1C(=O)N(CC1CCC1)[C@H]1CCNC1`, the IC50 in data set [5] was above 18200 nM; against Cytochrome P450 2D6, 3170 nM. In addition, the values for the Ki in data set [1], in data set [2] and in data set [3] were 10 nM, 857 nM and 2040 nM, respectively. This compound also gave a microsomal CLint in data set [4] below 9 µL/min/mg.
For `CC(C)CN(C(=O)c1ccccc1-c1ccccc1)[C@H]1CCNC1`, the IC50 in data set [5] worked out at 1440 nM. Further, the Ki was 294 nM in data set [1], 654 nM in data set [2] and above 10000 nM in data set [3].
Regarding `O=C(c1ccccc1C(F)(F)F)N(CC1CC1)[C@H]1CCNC1`, the IC50 in data set [5] was above 20000 nM. For the same compound, the Ki in data set [1] is 30 nM; in data set [2] it was 581 nM; in data set [3] it was above 10000 nM.
On to `CSc1ccccc1C(=O)N(C1CCCCC1)[C@H]1CCNC1`, for which the IC50 in data set [5] stood at 2270 nM. In addition, the Ki in data set [2] amounted to 16 nM; in data set [3] it was 2950 nM.
